{"source": "patent US12629406B2", "about": "“Alterations in endothelin receptors following hemorrhage and resuscitation by centhaquin” (MIDWESTERN UNIVERSITY, priority 2018, dated 2026)", "key": {"[1]": {"test": "Rat hemorrhagic shock, hypertonic saline resuscitation: hematocrit, arterial blood gases, lactate, base deficit", "format": "in vivo", "experimental": "Animals. Male Sprague-Dawley rats (340 to 380 g) (Envigo, Indianapolis, IN) were housed for at least 4 days in a room with controlled temperature (23±1° C.), humidity (50±10%) and light (6:00 A.M. to 6:00 P.M.) before being used. Food and water were made available continuously. Animal care and use for experimental procedures were approved by the Institutional Animal Care and Use Committee of the Midwestern University. All anesthetic and surgical procedures were in compliance with the guidelines established by the Animal Care Committee.\nDetermination of arterial blood gases and base deficit. Baseline arterial blood pH, Po2, Pco2, Na^+, K^+ and lactate were monitored prior to induction of shock, 30 minutes after induction of shock, and 30 and 60 minutes following vehicle or centhaquin resuscitation. Blood samples (0.15 ml) were drawn from the arterial cannula using blood gas sampling syringes (Innovative Medical Technologies, Inc. Leawood, K S) and analyzed using a pHOx Ultra analyzer (Nova Biomedical Corporation, Waltham, MA). The base deficit was calculated using the formula (Davis et al. 1998; Paladino et al. 2008): SBD=0.9287×[HCO3^−−24.4+14.83×(pH-7.4)]\n(§1) Induction of Hemorrhagic Shock. Hemorrhage was induced by withdrawing blood from the femoral artery at a rate of approximately 0.5 to 1 mL/min until a MAP of 35 mmHg was reached. This MAP was maintained for 30 min by further withdrawal of blood, if necessary. The hemorrhagic shock model used in the present study is a well-established rodent model of manageable pressure hemorrhage (Buehler et al. 2000; Gulati et al. 1997a; Gulati and Sen 1998). The volume of blood loss was about approximately 8.0 ml in each rat and was similar in various groups, amounting to approximately 40% of the total blood. Measured hematocrit levels were similar in various groups. The duration of blood withdrawal was approximately 15 minutes.\n(§2) Experimental design. To determine the resuscitative effect of centhaquin on cardiovascular system and plasma cytokines in hemorrhagic shock, rats were randomly divided into five groups, Group 1: Sham control (Non-hemorrhaged) (n=5), Group 2: Hemorrhage with no resuscitation (n=5); Group 3: Hemorrhage followed by resuscitation with 3% hypertonic saline (vehicle) (n=5); Group 4: Hemorrhage followed by resuscitation with vehicle plus centhaquin (0.017 mg/kg) (n=5); and Group 5: Hemorrhage followed by resuscitation with vehicle plus centhaquin (0.05 mg/kg) (n=5). Resuscitation was started 30 min after induction of hemorrhagic shock as an intravenous infusion (1 mL/min) through femoral vein using an infusion pump (Harvard Apparatus Infusion/Withdrawal Pump, Millis, MA). The blood samples, for biochemical estimations, were collected at 30 minutes of resuscitation and cardiovascular parameters were monitored till 60 minutes after which the animal was sacrificed. The volume of resuscitative solution was kept equal to the volume of blood loss."}, "[2]": {"details": "rat fixed pressure blood loss, rabbit uncontrolled bleeding with trauma, pig massive blood loss; cited from earlier work"}, "[3]": {"test_system": "ETA receptors", "test": "ETA receptor expression in tissues of hemorrhaged rats (western blot)", "format": "in vivo, rat", "details": "for change in ETA receptor expression, abdominal aorta: compared to hemorrhaged rats with no treatment; for change in ETA receptor expression, renal medulla: compared to hemorrhagic shock", "experimental": "as §1, §2\nEstimation of ETA and ETB receptor expression. Expression of ETA and ETB receptors was determined using the western blotting technique (Briyal et al. 2015; Leonard and Gulati 2013) with some modifications. After completion of cardiovascular experiments animals were sacrificed and the organs (brain, heart, liver, lung, kidney and abdominal aorta) were immediately dissected out, flash frozen on dry ice, and stored at −80° C. for further analysis. The tissue was homogenized with 10×(w/v) RIPA lysis buffer (20 mM Tris-HCl pH 7.5, 120 mM NaCl, 1.0% TritonX-100, 1.0% sodium deoxycholate, 0.1% sodium dodecyl sulfate (SDS), 10% glycerol, 1 mM disodium ethylene diamine tetraacetic acid (EDTA), 1 mM ethylene glycol-bis(β-aminoethyl ether)-N,N,N′,N′-tetraacetic acid tetrasodium salt (EGTA), phosphatase inhibitors and Complete Mini Protease inhibitor cocktail tablet (Roche Diagnostics, Indianapolis, IN). Proteins were isolated in solubilized form and concentrations were measured by Folin-Ciocalteu's phenol reagent (Lowry et al. 1951). Solubilized protein (60 μg) was denatured in Laemmli sample buffer (Bio-Rad Laboratories, Hercules, CA), resolved on 10% sodium dodecyl sulfate-polyacrylamide gel electrophoresis (SDS-PAGE) and then transferred onto the nitrocellulose membrane followed by blocking the membrane with SuperBlock® Blocking Buffer in tris-buffered saline (TBS) (ThermoFisher Scientific, Hanover Park, IL). The membranes were washed three times with 1×TBS-Tween (TBST) and incubated with rabbit polyclonal anti-ETA receptor (ab85163, Abcam, Cambridge, MA, 1:1000) or anti-ETB receptor (ab117529, Abcam, Cambridge, MA, 1:1000) or mouse monoclonal anti-β-actin (a1978, Sigma-Aldrich, St. Louis, MO) antibodies, followed by horseradish peroxidase (HRP)-conjugated secondary antibodies goat anti-rabbit (sc2004, Santa Cruz Biotechnology, Dallas, TX, 1:2000) or goat anti-mouse (ab98693, Abcam, Cambridge, MA, 1:10,000) and visualized by SuperSignal® West Pico Chemiluminescent Substrate (ThermoFisher Scientific, Hanover Park, IL) using the ChemiDoc™ MP Imaging System (Bio-Rad Laboratories, Hercules, CA) and then analyzed using ImageJ (NIH) software."}, "[4]": {"test_system": "isolated, perfused rabbit heart", "details": "cited from earlier work"}, "[5]": {"details": "60 min after resuscitation, centhaquin 0.017 mg/kg in 3% saline"}, "[6]": {"details": "60 min after resuscitation, centhaquin 0.05 mg/kg in 3% saline"}, "[7]": {"details": "Baseline, before hemorrhage, centhaquin 0.017 mg/kg group"}, "[8]": {"details": "Baseline, before hemorrhage, centhaquin 0.05 mg/kg group"}, "[9]": {"details": "H. Shock, before resuscitation, centhaquin 0.017 mg/kg group"}, "[10]": {"details": "H. Shock, before resuscitation, centhaquin 0.05 mg/kg group"}, "[11]": {"details": "centhaquin 0.017 and 0.05 mg/kg"}}, "note": "Values joined by “and” are separate entries in the source; they are usually repeats but may differ in a detail not shown here. Equal values may be shown once.", "data": [{"smiles": "Cc1cccc(N2CCN(CCc3ccc4ccccc4n3)CC2)c1", "note": "[centhaquin, 2-[2-(4-(3-methyphenyl)-1-piperazinyl)]ethyl-quinoline]", "values": [{"measurement": "Base-deficit", "setting": "[1]; [5]", "value": "−12.0±0.2 mEq/L and −12.0 ± 0.2^#Δ mEq/L"}, {"measurement": "Hematocrit", "setting": "[1]; [5]", "value": "21.5 ± 1.8", "unit": "%"}, {"measurement": "Lactate", "setting": "[1]; [5]", "value": "1.9 ± 0.1^#Δ mmol/L"}, {"measurement": "PCO2", "setting": "[1]; [5]", "value": "26.0 ± 1.6", "unit": "mmHg"}, {"measurement": "arterial blood pH", "setting": "[1]; [5]", "value": "7.24 ± 0.02^Δ"}, {"measurement": "pO2", "setting": "[1]; [5]", "value": "131.3 ± 5.4", "unit": "mmHg"}, {"measurement": "Base-deficit", "setting": "[1]; [6]", "value": "−11.6±0.5 mEq/L and −11.6 ± 0.5^#Δ mEq/L"}, {"measurement": "Hematocrit", "setting": "[1]; [6]", "value": "21.3 ± 1.3", "unit": "%"}, {"measurement": "Lactate", "setting": "[1]; [6]", "value": "1.7 ± 0.2^#Δ mmol/L"}, {"measurement": "PCO2", "setting": "[1]; [6]", "value": "27.3 ± 1.9", "unit": "mmHg"}, {"measurement": "arterial blood pH", "setting": "[1]; [6]", "value": "7.28 ± 0.01^Δ"}, {"measurement": "pO2", "setting": "[1]; [6]", "value": "121.3 ± 4.6", "unit": "mmHg"}, {"measurement": "Base-deficit", "setting": "[1]; [7]", "value": "−2.9 ± 0.3", "unit": "mEq/L"}, {"measurement": "Hematocrit", "setting": "[1]; [7]", "value": "36.8 ± 1.3", "unit": "%"}, {"measurement": "Lactate", "setting": "[1]; [7]", "value": "1.5 ± 0.2", "unit": "mmol/L"}, {"measurement": "PCO2", "setting": "[1]; [7]", "value": "33.8 ± 1.2", "unit": "mmHg"}, {"measurement": "arterial blood pH", "setting": "[1]; [7]", "value": "7.38 ± 0.01"}, {"measurement": "pO2", "setting": "[1]; [7]", "value": "125.5 ± 1.9", "unit": "mmHg"}, {"measurement": "Base-deficit", "setting": "[1]; [8]", "value": "−2.8 ± 0.3", "unit": "mEq/L"}, {"measurement": "Hematocrit", "setting": "[1]; [8]", "value": "39.3 ± 1.6", "unit": "%"}, {"measurement": "Lactate", "setting": "[1]; [8]", "value": "1.8 ± 0.1", "unit": "mmol/L"}, {"measurement": "PCO2", "setting": "[1]; [8]", "value": "34.5 ± 2.1", "unit": "mmHg"}, {"measurement": "arterial blood pH", "setting": "[1]; [8]", "value": "7.38 ± 0.01"}, {"measurement": "pO2", "setting": "[1]; [8]", "value": "120.2 ± 1.2", "unit": "mmHg"}, {"measurement": "Base-deficit", "setting": "[1]; [9]", "value": "−15.3 ± 0.4", "unit": "mEq/L"}, {"measurement": "Hematocrit", "setting": "[1]; [9]", "value": "24.8 ± 1.5", "unit": "%"}, {"measurement": "Lactate", "setting": "[1]; [9]", "value": "7.6 ± 0.3", "unit": "mmol/L"}, {"measurement": "PCO2", "setting": "[1]; [9]", "value": "15.9 ± 0.9", "unit": "mmHg"}, {"measurement": "arterial blood pH", "setting": "[1]; [9]", "value": "7.23 ± 0.02"}, {"measurement": "pO2", "setting": "[1]; [9]", "value": "145.6 ± 1.9", "unit": "mmHg"}, {"measurement": "Base-deficit", "setting": "[1]; [10]", "value": "−15.4 ± 0.9", "unit": "mEq/L"}, {"measurement": "Hematocrit", "setting": "[1]; [10]", "value": "22.2 ± 0.7", "unit": "%"}, {"measurement": "Lactate", "setting": "[1]; [10]", "value": "7.4 ± 0.4", "unit": "mmol/L"}, {"measurement": "PCO2", "setting": "[1]; [10]", "value": "16.3 ± 1.5", "unit": "mmHg"}, {"measurement": "arterial blood pH", "setting": "[1]; [10]", "value": "7.25 ± 0.03"}, {"measurement": "pO2", "setting": "[1]; [10]", "value": "142.8 ± 1.8", "unit": "mmHg"}, {"measurement": "change in hematocrit after treatment", "setting": "[1]; [11]", "value": "no change"}, {"measurement": "effect on blood pH of hemorrhaged rats", "setting": "[1]; [11]", "value": "significantly prevented the reduction of pH"}, {"measurement": "blood lactate levels compared to the hypertonic saline group", "setting": "[1]; centhaquin 0.017 and 0.05 mg/kg, p<0.001", "value": "significant decrease"}, {"measurement": "effect on hemorrhage-induced decrease in pCO2 and increase in pO2", "setting": "[1]; resuscitation with centhaquin", "value": "not affected"}, {"measurement": "mortality following hypovolemic shock", "setting": "[2]", "value": "highly effective in reducing the mortality"}, {"measurement": "change in ETA receptor expression, abdominal aorta", "setting": "[3]; centhaquin 0.017 mg/kg", "value": "−47.6", "unit": "%"}, {"measurement": "change in ETA receptor expression, renal medulla", "setting": "[3]; centhaquin 0.017 mg/kg", "value": "−61.3", "unit": "%"}, {"measurement": "change in ETA receptor expression, abdominal aorta", "setting": "[3]; centhaquin 0.05 mg/kg", "value": "−49.2", "unit": "%"}, {"measurement": "change in ETA receptor expression, renal medulla", "setting": "[3]; centhaquin 0.05 mg/kg", "value": "−70.5", "unit": "%"}, {"measurement": "change in ETA expression, renal medulla (summary)", "setting": "[3]; dose not given", "value": "−61", "unit": "%"}, {"measurement": "ETA receptor expression in brain, heart, liver, lungs and kidney cortex", "setting": "[3]; hemorrhage and resuscitation", "value": "no change"}, {"measurement": "shock-induced increase (140%) in ETA expression, abdominal aorta", "setting": "[3]; summary, also attenuated by saline", "value": "attenuated"}, {"measurement": "inotropic effect, ventricular contractions", "setting": "[4]", "value": "positive inotropic effect"}]}]}
